The values below come from patent US11833211B2, “Methods of suppression and treatment of disease comprising administering bicycle peptide ligands specific for EphA2” (BicycleTx Limited, priority 2017, dated 2023).

Data set [1] deals with T1, human EphA2 (Homo sapiens, UniProt P29317).
T1 construct: EphA2 (Ecto); polyHis (C); purchased R&D systems (or In-house)
The data set is described as follows: Fluorescence polarisation competition binding assay (Study 1). (In fluorescence polarisation assays a small probe gives low polarisation when free and higher when bound to something large.)

Data set [2] concerns PC-3 xenograft. The data set is described as follows: Study 8: in vivo efficacy in PC-3 xenograft. The note with it: 15 mg/kg. Also on record: species or system Mus Musculus.
Data set [3] has as its target T2, mouse EphA2 (Mus musculus, UniProt Q03145).
T2 construct: EphA2 (Ecto)
It is filed as binding.

Data set [4] concerns the target T3, rat EphA2 (Rattus norvegicus, UniProt D3ZBN3).
T3 construct: polyHis (C); made in house
The data set is described as follows: Fluorescence polarisation competition binding, alternative protocol (Study 2).

T2 sequence (Q03145 26-538 limits assumed): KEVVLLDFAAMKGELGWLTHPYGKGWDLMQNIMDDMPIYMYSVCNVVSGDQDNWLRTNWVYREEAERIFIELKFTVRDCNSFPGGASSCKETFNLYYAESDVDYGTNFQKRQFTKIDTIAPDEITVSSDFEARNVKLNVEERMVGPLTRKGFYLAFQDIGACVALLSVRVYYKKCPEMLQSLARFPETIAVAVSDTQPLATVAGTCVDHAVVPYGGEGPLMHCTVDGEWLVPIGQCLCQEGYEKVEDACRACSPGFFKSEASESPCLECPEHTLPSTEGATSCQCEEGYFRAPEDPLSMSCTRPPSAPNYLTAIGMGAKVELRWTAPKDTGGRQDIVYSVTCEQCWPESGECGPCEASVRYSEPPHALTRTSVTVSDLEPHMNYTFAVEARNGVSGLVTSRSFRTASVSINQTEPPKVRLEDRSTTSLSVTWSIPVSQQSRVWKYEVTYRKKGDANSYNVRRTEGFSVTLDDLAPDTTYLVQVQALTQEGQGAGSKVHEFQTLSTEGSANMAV
T3 sequence (D3ZBN3 27-205): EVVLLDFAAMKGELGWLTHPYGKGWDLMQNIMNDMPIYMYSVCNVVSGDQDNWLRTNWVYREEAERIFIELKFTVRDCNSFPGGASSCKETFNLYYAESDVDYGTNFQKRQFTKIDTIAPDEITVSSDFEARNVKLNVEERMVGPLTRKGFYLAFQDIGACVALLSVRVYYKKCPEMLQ
T1 sequence (P29317 24-537 limits assumed): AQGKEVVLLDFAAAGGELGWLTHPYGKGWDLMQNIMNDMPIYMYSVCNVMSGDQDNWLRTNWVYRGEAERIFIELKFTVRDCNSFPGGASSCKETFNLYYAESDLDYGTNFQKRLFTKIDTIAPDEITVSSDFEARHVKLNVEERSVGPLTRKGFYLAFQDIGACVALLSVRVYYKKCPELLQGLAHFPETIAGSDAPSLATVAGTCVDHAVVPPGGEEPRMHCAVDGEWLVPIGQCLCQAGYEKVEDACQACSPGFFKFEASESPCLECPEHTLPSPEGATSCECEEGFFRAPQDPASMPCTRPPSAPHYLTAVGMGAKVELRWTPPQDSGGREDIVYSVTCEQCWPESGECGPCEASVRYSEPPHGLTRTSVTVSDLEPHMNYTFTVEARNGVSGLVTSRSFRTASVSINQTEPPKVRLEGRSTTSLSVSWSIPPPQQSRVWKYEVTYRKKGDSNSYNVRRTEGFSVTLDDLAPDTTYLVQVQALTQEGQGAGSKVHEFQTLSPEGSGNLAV

As for `COc1cc2cc(c1Cl)N(C)C(=O)C[C@@H](OC(=O)[C@@H](C)N(C)C(=O)CCSSC(C)CCC(=O)NCCC(=O)N(C)CC(=O)N(C)CC(=O)N(C)CC(=O)N(C)CC(=O)N(C)CC(=O)N(C)CC(=O)N(C)CC(=O)N(C)CC(=O)N(C)CC(=O)N(C)CC(=O)N[C@@H](C)C(=O)N[C@@H](CCCCNC(=N)N)C(=O)N[C@@H](CC(=O)O)C(=O)N[C@H]1CSCCC(=O)N3CN4CN(C3)C(=O)CCSC[C@H](NC(=O)[C@H](CC(C)C)NC(=O)[C@@H]3CCCN3C(=O)[C@H](CC(N)=O)NC(=O)[C@H](C(C)C)NC(=O)[C@H](CC(C)C)NC(=O)[C@@H]3C[C@@H](O)CN3C1=O)C(=O)N[C@@H](CC(C)C)C(=O)N[C@@H](Cc1c[nH]cn1)C(=O)N1CCC[C@H]1C(=O)N[C@H](CC(=O)O)C(=O)N[C@@H](Cc1c[nH]c3ccccc13)C(=O)N[C@@H](CCCCNC(=N)N)C(=O)N[C@H](C(N)=O)CSCCC4=O)[C@@]1(C)O[C@@H]1[C@@H](C)[C@H]1C[C@](O)(NC(=O)O1)C(OC)/C=C/C=C(\C)C2` (stereo partly drawn) [BCY6028], in data set [1], the “competition binding in the EphA2 competition binding assay (in words)” value is listed as “excellent competition binding”.

Turning to `CC(=O)O[C@@]12CO[C@@H]1C[C@H](O)[C@@]1(C)C(=O)[C@H](O)C3=C(C)[C@@H](OC(=O)[C@H](O)[C@@H](NC(=O)OC(C)(C)C)c4ccccc4)C[C@@](O)([C@@H](OC(=O)c4ccccc4)[C@H]21)C3(C)C` [Docetaxel], in data set [2] (after the first dosing), the body weight result is recorded as “severe animal body weight loss”. Moreover, in data set [2] (qw), the “anti-tumor activity (in words)” value is on record as “significant anti-tumor activity” and the “tumor relapse after ceasing the treatment” value was “obvious tumor relapse”.

With “(β-Ala)-Sar10-A(HArg)D-Ci(HyP)LVNPLCiiLHP(D-Asp)W(HArg)Ciii [BCY6099]”, the “affinity to mouse EphA2 (in words)” value in data set [3] is given as “high affinity”. Besides, the “affinity to rat EphA2 (in words)” value in data set [4] is reported as “high affinity”.
